Where a name gives a salt, the structure may show the parent alone. Read-outs that look alike come from different tables or passages of the source.
Target: T1, hNaV1.7 (Homo sapiens, UniProt Q15858)
T1 construct: expressed in transfected cells; host or cells: HEK293
Experiment: QPatch NaV1.7 assay (whole-cell patch clamp, QPatch16x)
Type: cell-based
Conditions: HEK293-hNaV1.7 cells
Experimental: The compounds of the invention were tested in a QPatch NaV1.7 assay.
HEK293-hNaV1.7 cells were grown in DMEM-F12+10% FBS culture media at 37° C. At a confluency of 50-70% cells were dissociated from culture flasks & triturated to ensure unicellular cell suspension; cell density was measured & adjusted to 2-3×10^6 cells/ml. Recordings were obtained using QPatch16x. The external solution was (in mM): NaCl, 128; KCl, 5; MgCl2, 2; CaCl2, 2; Glucose, 30; HEPES, 15; pH 7.3, 305-315 mOsm. Following seal formation and whole-cell access using internal solution (containing in mM: CsF, 135; EGTA/CsOH, 1/5; HEPES 10; NaCl, 10; pH 7.3, 310-320 mOsM), voltage pulse protocols were applied. Initially a steady state inactivation voltage protocol was used to determine the half-maximal voltage for steady state inactivation (V1/2 SSI). Two holding voltages were used to determine test drug inhibition: −90 mV, where most of the channels are in a closed state; and V1/2 SSI, where half of the channels are inactivated. Currents were elicited […] by stepping to a membrane potential of 0 mV for 20 ms. Four-point cumulative concentration responses were derived by determining the peak current amplitude at each concentration of test drug over 120 second application. Curves were fitted with the Hill equation yielding pIC50 values at −90 mV and V1/2 SSI holding potentials.

[1] = holding voltage V1/2 SSI (half of channels inactivated), read-out: QP Nav1.7 SSI vhalf pIC50 (converted)
[2] = holding voltage −90 mV (most channels closed), read-out: QP Nav1.7 −90 mV pIC50 (converted)

T1 sequence (Q15858 whole entry): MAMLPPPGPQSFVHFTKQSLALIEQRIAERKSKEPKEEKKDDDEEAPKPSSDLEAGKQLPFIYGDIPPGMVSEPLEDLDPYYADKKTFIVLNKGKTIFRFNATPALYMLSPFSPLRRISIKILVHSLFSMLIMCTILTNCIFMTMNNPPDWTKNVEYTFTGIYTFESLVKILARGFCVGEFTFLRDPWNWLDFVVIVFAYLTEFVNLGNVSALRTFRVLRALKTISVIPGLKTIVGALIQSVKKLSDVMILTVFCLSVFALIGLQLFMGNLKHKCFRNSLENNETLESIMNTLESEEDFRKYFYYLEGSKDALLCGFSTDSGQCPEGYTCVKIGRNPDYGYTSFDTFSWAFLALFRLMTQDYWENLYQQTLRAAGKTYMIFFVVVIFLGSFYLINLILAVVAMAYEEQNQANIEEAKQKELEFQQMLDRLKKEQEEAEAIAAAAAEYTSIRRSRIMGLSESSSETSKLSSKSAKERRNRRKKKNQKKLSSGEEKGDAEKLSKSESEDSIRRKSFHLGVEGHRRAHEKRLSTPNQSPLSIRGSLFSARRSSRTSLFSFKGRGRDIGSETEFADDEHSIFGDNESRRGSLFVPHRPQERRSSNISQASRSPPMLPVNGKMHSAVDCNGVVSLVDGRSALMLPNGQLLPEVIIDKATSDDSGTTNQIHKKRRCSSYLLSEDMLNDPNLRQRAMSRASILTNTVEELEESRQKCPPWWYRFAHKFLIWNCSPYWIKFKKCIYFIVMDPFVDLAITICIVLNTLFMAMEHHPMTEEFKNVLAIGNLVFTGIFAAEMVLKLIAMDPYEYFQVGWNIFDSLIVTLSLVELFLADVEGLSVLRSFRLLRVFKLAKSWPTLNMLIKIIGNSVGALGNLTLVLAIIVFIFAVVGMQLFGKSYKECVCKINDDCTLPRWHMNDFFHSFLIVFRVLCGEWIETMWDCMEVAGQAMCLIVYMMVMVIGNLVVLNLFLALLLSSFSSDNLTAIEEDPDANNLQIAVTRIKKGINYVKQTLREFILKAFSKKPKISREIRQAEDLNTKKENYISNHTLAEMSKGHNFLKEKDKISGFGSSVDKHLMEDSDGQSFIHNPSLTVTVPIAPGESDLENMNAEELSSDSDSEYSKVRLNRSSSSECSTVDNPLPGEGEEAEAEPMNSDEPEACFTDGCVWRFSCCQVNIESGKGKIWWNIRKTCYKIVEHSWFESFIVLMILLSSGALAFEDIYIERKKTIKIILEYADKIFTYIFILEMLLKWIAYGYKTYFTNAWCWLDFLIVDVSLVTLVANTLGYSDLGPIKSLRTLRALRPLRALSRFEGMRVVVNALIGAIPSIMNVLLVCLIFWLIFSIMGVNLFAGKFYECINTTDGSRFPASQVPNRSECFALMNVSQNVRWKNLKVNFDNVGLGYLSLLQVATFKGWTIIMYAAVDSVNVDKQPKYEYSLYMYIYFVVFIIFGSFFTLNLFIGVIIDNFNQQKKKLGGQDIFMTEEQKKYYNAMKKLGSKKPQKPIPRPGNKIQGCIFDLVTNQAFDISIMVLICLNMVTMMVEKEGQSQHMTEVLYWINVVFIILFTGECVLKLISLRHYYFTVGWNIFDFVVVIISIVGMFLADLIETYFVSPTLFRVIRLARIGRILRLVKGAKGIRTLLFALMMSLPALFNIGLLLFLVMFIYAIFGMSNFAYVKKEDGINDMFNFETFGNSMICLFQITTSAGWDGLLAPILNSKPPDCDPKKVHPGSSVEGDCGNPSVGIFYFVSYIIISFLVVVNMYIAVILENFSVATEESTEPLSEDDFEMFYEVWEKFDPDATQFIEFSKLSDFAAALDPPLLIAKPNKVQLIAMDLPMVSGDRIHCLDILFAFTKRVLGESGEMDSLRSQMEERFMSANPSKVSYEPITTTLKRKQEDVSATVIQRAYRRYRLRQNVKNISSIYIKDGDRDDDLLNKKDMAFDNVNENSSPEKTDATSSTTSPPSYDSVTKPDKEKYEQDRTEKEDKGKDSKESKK

Q: Which IC50 [1] does the source give for `CCOc1cc(F)cc(-c2cc(C)nc([C@H]3CC[C@@]4(CCN(C)C4=O)N3)c2)c1` [Example 197, (2R,5S)-2-[4-(3-Ethoxy-5-fluoro-phenyl)-6-methyl-2-pyridyl]-7-methyl-1,7-diazaspiro[4.4]nonan-6-one hydrochloride] here?
A: The IC50 was 5.01 µM.

Q: What about the IC50 [2] of the same compound?
A: The IC50 was 50.1 µM.

Q: `COc1cnc([C@H]2CC[C@]3(CCN(C)C3=O)N2)cc1-c1ccc(C(F)(F)F)cc1` [Example 152, (2R,5R)-2-[5-Methoxy-4-[4-(trifluoromethyl)phenyl]-2-pyridyl]-7-methyl-1,7-diazaspiro[4.4]nonan-6-one hydrochloride] was tested. Which IC50 [1] did it give?
A: Its IC50 is 15.8 µM.

Q: And the IC50 [2]?
A: The IC50 was 200 µM.

Q: How did the IC50 [1] turn out when `CCS(=O)(=O)c1ccc(-c2cc(C)nc([C@@H]3CC[C@]4(CCN(C)C4=O)N3)c2)cc1` [Example 210, (2S,5R)-2-[4-(4-Ethylsulfonylphenyl)-6-methyl-2-pyridyl]-7-methyl-1,7-diazaspiro[4.4]nonan-6-one hydrochloride] was run?
A: The IC50 was 398 µM.

Q: Which IC50 [1] does the source give for `Cc1cc(-c2ccc(F)cc2)cc([C@H]2CC[C@@]3(CCN(C)C3=O)N2)n1` [Example 57, (2R,5S)-2-[4-(4-Fluorophenyl)-6-methyl-2-pyridyl]-7-methyl-1,7-diazaspiro[4.4]nonan-6-one hydrochloride] here?
A: The IC50 was 3.98 µM.

Q: And the IC50 [2]?
A: Its IC50 is 79.4 µM.

Q: How did the IC50 [1] turn out when `CCOc1ccc(F)c(-c2ccnc([C@@H]3CC[C@]4(CCN(C)C4=O)N3)c2C)c1` [Example 213, (2S,5R)-2-[4-(5-Ethoxy-2-fluoro-phenyl)-3-methyl-2-pyridyl]-7-methyl-1,7-diazaspiro[4.4]nonan-6-one hydrochloride] was run?
A: Its IC50 is 6.31 µM.

Q: What about the IC50 [2] of the same compound?
A: Its IC50 is 63.1 µM.

Q: Which results are given for `Cc1cc(-c2cccc(OC(F)(F)F)c2)cc([C@H]2CC[C@@]3(CCN(C)C3=O)N2)n1` [Example 127, (2R,5S)-7-Methyl-2-[6-methyl-4-[3-(trifluoromethoxy)phenyl]-2-pyridyl]-1,7-diazaspiro[4.4]nonan-6-one hydrochloride]?
A: IC50 [1]: 12.6 µM; IC50 [2]: 12.6 µM

Q: Which IC50 [1] does the source give for `CCCOc1ccc(F)c(-c2cc(C)nc([C@@H]3CC[C@]4(CCN(C)C4=O)N3)c2)c1` [Example 201, (2S,5R)-2-[4-(2-Fluoro-5-propoxy-phenyl)-6-methyl-2-pyridyl]-7-methyl-1,7-diazaspiro[4.4]nonan-6-one hydrochloride] here?
A: The IC50 was 0.126 µM.

Q: And the IC50 [2]?
A: Its IC50 is 5.01 µM.

Q: What does the source list for `CCOc1cc(-c2ccnc([C@H]3CC[C@@]4(CCN(C)C4=O)N3)c2)c(F)cc1C` [Example 151, (2R,5S)-2-[4-(5-Ethoxy-2-fluoro-4-methyl-phenyl)-2-pyridyl]-7-methyl-1,7-diazaspiro[4.4]nonan-6-one hydrochloride]?
A: IC50 [1]: 15.8 µM; IC50 [2]: 100 µM

Q: Which IC50 [1] does the source give for `Cc1cc(-c2ccc(OC(C)C)cc2)cc([C@H]2CC[C@@]3(CCN(C)C3=O)N2)n1` [Example 85, (2R,5S)-2-[4-(4-Isopropoxyphenyl)-6-methyl-2-pyridyl]-7-methyl-1,7-diazaspiro[4.4]nonan-6-one hydrochloride] here?
A: Its IC50 is 0.316 µM.

Q: And the IC50 [2]?
A: The IC50 was 10 µM.

Q: Which results are given for `COc1cccc(-c2ccnc([C@H]3CC[C@@]4(CCN(C)C4=O)N3)c2)c1Cl` [Example 80, (2R,5S)-2-[4-(2-Chloro-3-methoxy-phenyl)-2-pyridyl]-7-methyl-1,7-diazaspiro[4.4]nonan-6-one hydrochloride]?
A: IC50 [1]: 200 µM; IC50 [2]: 316 µM

Q: What does the source list for `CN1CC[C@@]2(CC[C@H](c3cc(-c4cccc5c4OC(F)(F)O5)ccn3)N2)C1=O` [Example 81, (2R,5S)-2-[4-(2,2-Difluoro-1,3-benzodioxol-4-yl)-2-pyridyl]-7-methyl-1,7-diazaspiro[4.4]nonan-6-one hydrochloride]?
A: IC50 [1]: 3.16 µM; IC50 [2]: 200 µM

Q: Which IC50 [1] does the source give for `CCOc1ccc(F)c(-c2cc(C(C)C)nc([C@@H]3CC[C@@]4(CCN(C)C4=O)N3)c2)c1` [Example 236, (2S,5S)-2-[4-(5-Ethoxy-2-fluoro-phenyl)-6-isopropyl-2-pyridyl]-7-methyl-1,7-diazaspiro[4.4]nonan-6-one hydrochloride] here?
A: The IC50 was 0.631 µM.

Q: And the IC50 [2]?
A: The IC50 was 6.31 µM.

Q: What does the source list for `CC1(C)C[C@]2(CC[C@H](c3cc(-c4cc(O)ccc4F)ccn3)N2)C(=O)N1` [Example 220, (2R,5R)-2-[4-(2-Fluoro-5-hydroxy-phenyl)-2-pyridyl]-8,8-dimethyl-1,7-diazaspiro[4.4]nonan-6-one]?
A: IC50 [1]: 50.1 µM; IC50 [2]: 200 µM

Q: How did the IC50 [1] turn out when `CCOc1ccc(F)c(-c2cc([C@@H]3CC[C@@]4(CCN(C)C4=O)N3)nc(C)c2C)c1` [Example 142, (2S,5S)-2-[4-(5-Ethoxy-2-fluoro-phenyl)-5,6-dimethyl-2-pyridyl]-7-methyl-1,7-diazaspiro[4.4]nonan-6-one hydrochloride] was run?
A: Its IC50 is 0.794 µM.

Q: And the IC50 [2]?
A: The IC50 was 15.8 µM.

Q: `CN1CC[C@@]2(CC(F)C(c3cc(-c4ccc(C(F)(F)F)cc4)ccn3)N2)C1=O` (single isomer, unassigned) [Example 238, hydrochloride] was tested. Which IC50 [1] did it give?
A: Its IC50 is 2 µM.

Q: What about the IC50 [2] of the same compound?
A: Its IC50 is 50.1 µM.

Q: How did the IC50 [1] turn out when `COc1cc(C(F)(F)F)ccc1-c1cc([C@H]2CC[C@]3(CCN(C)C3=O)N2)ncc1C` [Example 130, (2R,5R)-2-[4-[2-Methoxy-4-(trifluoromethyl)phenyl]-5-methyl-2-pyridyl]-7-methyl-1,7-diazaspiro[4.4]nonan-6-one hydrochloride] was run?
A: The IC50 was 7.94 µM.

Q: What about the IC50 [2] of the same compound?
A: The IC50 was 158 µM.

Q: How did the IC50 [1] turn out when `CCOc1c(F)cccc1-c1ccnc([C@H]2CC[C@@]3(CCN(C)C3=O)N2)c1` [Example 158, (2R,5S)-2-[4-(2-Ethoxy-3-fluoro-phenyl)-2-pyridyl]-7-methyl-1,7-diazaspiro[4.4]nonan-6-one hydrochloride] was run?
A: Its IC50 is 63.1 µM.

Q: And the IC50 [2]?
A: Its IC50 is 1260 µM.

Q: With `CCOc1ccc(F)c(-c2cc(C)nc([C@@H]3CC[C@@]4(CCN(C)C4=O)N3)c2)c1` [Example 92, (2S,5S)-2-[4-(5-Ethoxy-2-fluoro-phenyl)-6-methyl-pyridin-2-yl]-7-methyl-1,7-diaza-spiro[4.4]nonan-6-one hydrochloride] as the compound, how does the IC50 [1] read?
A: The IC50 was 2.51 µM.

Q: What about the IC50 [2] of the same compound?
A: The IC50 was 39.8 µM.

Q: Which results are given for `CCOc1cccc(-c2ccnc([C@H]3CC[C@@]4(CCN(C)C4=O)N3)c2)c1` [Example 82, (2R,5S)-2-[4-(3-Ethoxyphenyl)-2-pyridyl]-7-methyl-1,7-diazaspiro[4.4]nonan-6-one hydrochloride]?
A: IC50 [1]: 7.94 µM; IC50 [2]: 200 µM

Q: How did the IC50 [1] turn out when `CCOc1ccc(F)c(-c2cc(C)nc([C@@H]3CC[C@]4(CCN(C)C4=O)N3)c2)c1` [Example 120, (2S,5R)-2-[4-(5-Ethoxy-2-fluoro-phenyl)-6-methyl-pyridin-2-yl]-7-methyl-1,7-diaza-spiro[4.4]nonan-6-one hydrochloride] was run?
A: The IC50 was 0.794 µM.

Q: And the IC50 [2]?
A: The IC50 was 20 µM.

Q: How did the IC50 [1] turn out when `CN1CC[C@@]2(CC[C@H](c3cc(-c4ccc(F)cc4)ccn3)N2)C1=O` [Example 66, (2R,5S)-2-[4-(4-Fluorophenyl)-2-pyridyl]-7-methyl-1,7-diazaspiro[4.4]nonan-6-one hydrochloride] was run?
A: Its IC50 is 10 µM.

Q: What about the IC50 [2] of the same compound?
A: Its IC50 is 126 µM.

Q: Which results are given for `CCOc1cc(-c2ccnc([C@@H]3CC[C@@]4(CCN(C)C4=O)N3)c2)c(F)cc1F` [Example 148, (2S,5S)-2-[4-(5-Ethoxy-2,4-difluoro-phenyl)-2-pyridyl]-7-methyl-1,7-diazaspiro[4.4]nonan-6-one hydrochloride]?
A: IC50 [1]: 31.6 µM; IC50 [2]: 398 µM

Q: Which results are given for `Cc1cc(-c2cc(OC(C)C)ccc2F)cc([C@H]2CC[C@@]3(CCN(C)C3=O)N2)n1` [Example 198, (2R,5S)-2-[4-(2-Fluoro-5-isopropoxy-phenyl)-6-methyl-2-pyridyl]-7-methyl-1,7-diazaspiro[4.4]nonan-6-one hydrochloride]?
A: IC50 [1]: 5.01 µM; IC50 [2]: 63.1 µM

Q: What does the source list for `CCOc1ccc(F)c(-c2cc(C)nc([C@@H]3CC[C@@]4(CCNC4=O)N3)c2)c1` [Example 105, (2S,5S)-2-[4-(5-Ethoxy-2-fluoro-phenyl)-6-methyl-2-pyridyl]-1,7-diazaspiro[4.4]nonan-6-one hydrochloride]?
A: IC50 [1]: 2 µM; IC50 [2]: 25.1 µM

Q: What does the source list for `CN1CC[C@]2(CC[C@H](c3cc(-c4ccc(C(F)(F)F)cc4)ccn3)N2)C1=O` [Example 55, (2R,5R)-7-Methyl-2-[4-(4-trifluoromethyl-phenyl)-pyridin-2-yl]-1,7-diaza-spiro[4.4]nonan-6-one hydrochloride]?
A: IC50 [1]: 20 µM; IC50 [2]: 100 µM

Q: Which results are given for `CN1CC[C@]2(CC[C@H](c3cc(-c4ccccc4F)ccn3)N2)C1=O` [Example 35, (2R,5R)-2-[4-(2-Fluoro-phenyl)-pyridin-2-yl]-7-methyl-1,7-diaza-spiro[4.4]nonan-6-one hydrochloride]?
A: IC50 [1]: 100 µM; IC50 [2]: 398 µM

Q: With `CCOc1ccc(F)c(-c2ccnc([C@H]3CC[C@@]4(CCN(C)C4=O)N3)c2)c1` [Example 8, (2R,5S)-2-[4-(5-Ethoxy-2-fluoro-phenyl)-2-pyridyl]-7-methyl-1,7-diazaspiro[4.4]nonan-6-one hydrochloride] as the compound, how does the IC50 [1] read?
A: The IC50 was 0.794 µM.

Q: What about the IC50 [2] of the same compound?
A: Its IC50 is 10 µM.

Q: Which IC50 [1] does the source give for `CN1CC[C@@]2(CC[C@H](c3cc(-c4ccc(F)cc4F)ccn3)N2)C1=O` [Example 9, (2R,5S)-2-[4-(2,4-Difluorophenyl)-2-pyridyl]-7-methyl-1,7-diazaspiro[4.4]nonan-6-one hydrochloride] here?
A: Its IC50 is 63.1 µM.

Q: What about the IC50 [2] of the same compound?
A: Its IC50 is 1000 µM.

Source: US9376436B2, “2-(pyridin-2yl)-1, 7-diaza-spiro [4.4] nonane-6-one compound as voltage-gated sodium channels modulators” (CONVERGENCE PHARMACEUTICALS LIMITED, priority 2011, dated 2016)
